Data published in patent US12594282B2, “Use of small molecule compounds in the treatment of diseases mediated by lung epithelial cell injury and/or vascular endothelial cell injury” (Guangzhou Cellprotek Pharmaceutical Co., Ltd., priority 2020, dated 2026).

Tested on: acute hypobaric hypoxia-induced lung injury
Assay: Acute hypobaric hypoxia-induced lung injury in Macaca fascicularis (HE pathology)
Assay type: in vivo
Conditions: 7500 meters for 48 hours
Experimental: Twenty-four healthy male Macaca fascicularis, 6 to 6.5 years-old, weighted 6.5-7.5 kg, were purchased from Kangda Laboratory Animal Center, Gaoyao City, Guangdong, China, in which 17 male Macaca fascicularis were divided into 3 groups, as shown in the following table:
Three Macaca fascicularis housed in the animal room were randomly selected each time. For each animal, 10 ml of blood was collected, and 10 ml of glucose normal saline was injected intravenously, and marked. The animals were then housed in a low-pressure chamber for 1 day to acclimate to the experimental environment. In the acute hypobaric hypoxia group, the altitude was simulated to 3000 meters at a speed of 3 m/s; after the animals stayed in the low-pressure chamber at a simulated altitude of 3000 meters for 30 minutes, 10 ml of blood was taken from each animal and 10 ml of glucose saline was injected intravenously; the altitude was then simulated to 4500 meters at a speed of 3 m/s; after the animals stayed in the low-pressure chamber at a simulated altitude of 4500 meters for 30 minutes, 10 ml of blood was taken from each animal and 10 ml of glucose saline was injected intravenously; the altitude was simulated to 6000 meters at a speed of 3 m/s; after the animals stayed in the low-pressure chamber at a simulated altitude of 6000 meters for 30 minutes, 10 ml of blood was taken from each animal and 10 ml of glucose saline was injected intravenously; the altitude was simulated to 7500 meters at a speed of 2 m/s; after the animals stayed at a simulated altitude of 7500 meters in the low-pressure chamber for 24 hours, the altitude was lowered to 6000 meters at a speed of 3 m/s, and 10 ml of blood was taken from each animal and 10 ml of glucose saline was injected intravenously; the altitude was simulated to 7500 meters at a speed of 2 m/s; after staying at 7500 meters for 48 hours, the altitude was lowered to 6000 meters at a speed of 3 m/s, the animals were anesthetized (0.06 ml/kg ketamine hydrochloride injection, 0.02 ml/kg xylazine hydrochloride injection), and sacrificed by carotid bloodletting, and dissected and subject to sampling, and the samples were then fixed. The Macaca fascicularis in the normobaric normoxia control group were anesthetized (0.06 ml/kg ketamine hydrochloride injection, 0.02 ml/kg xylazine hydrochloride injection) in the plain (an altitude of 352 meters), then sacrificed by carotid bloodletting, and dissected and subject to sampling, and the samples were then fixed. […]

Question: `C[C@@]12CCCC1C1C[C@@H](O)[C@]3(O)C[C@@H](O)CC[C@]3(C)C1CC2` (stereo partly drawn) [YC-6, 5α-androst-3β,5,6β-triol] was tested. Which “alveolar septal thickening caused by acute hypobaric hypoxia” value (100 mg/kg/two days (i.v. solution and i.m. sustained-release formulation)) did it give?
Answer: significantly reduced the alveolar septal thickening injury

Question: And the “fibrous hyperplasia of alveolar septa, protein hyaline membrane formation and erythrocyte leakage into the alveolar space” value (100 mg/kg/two days)?
Answer: no such obvious changes were observed

Question: What about the “inflammatory infiltration and shedding of damaged lung epithelial cells” value (100 mg/kg/two days) of the same compound?
Answer: no obvious inflammatory infiltration and shedding of damaged lung epithelial cells were observed

Question: What about the “pulmonary vascular congestion and swelling” value (100 mg/kg/two days) of the same compound?
Answer: significantly inhibited pulmonary vascular congestion and swelling
